Assay results as given in US12612368B2 (Remedy Plan, Inc., priority 2019, dated 2026).
Read-outs that look alike come from different tables or passages of the source.

How the values were obtained:
MV-4-11 cells = test: Cell viability in MV-4-11 cells (CellTiter Glo2); type: cell-based; details: Homo sapiens, MV4-11, 96 h, 8-point dose response, 4 days
Experimental: Approximately 10,000 MV-4-11 cells per well of a 96-well plate were treated with DMSO (no drug control) or each compound in Tables E1 and E2 in an 8-point dose response for 4 days, Cell viability was measured using CellTiter Glo2. The ICse of each compound was determined using CDD Vault.

NAMPT = molecular target: T1, NAMPT (Homo sapiens, UniProt P43490); test: NAMPT Activity Assay (Abcam #ab221819); type: biochemical; details: purified NAMPT, two-step reaction, OD450 nm; percent inhibition vs no drug; compound concentration not stated
T1 construct: purchased Abcam ab221819

[1] = CellTiter Glo2 (Table E2), read-out: MV-4-11 Cell Viability, MV-4-11 IC50
[2] = CellTiter Glo2 (Table E1), read-out: MV-4-11 IC50

T1 sequence (P43490 whole entry): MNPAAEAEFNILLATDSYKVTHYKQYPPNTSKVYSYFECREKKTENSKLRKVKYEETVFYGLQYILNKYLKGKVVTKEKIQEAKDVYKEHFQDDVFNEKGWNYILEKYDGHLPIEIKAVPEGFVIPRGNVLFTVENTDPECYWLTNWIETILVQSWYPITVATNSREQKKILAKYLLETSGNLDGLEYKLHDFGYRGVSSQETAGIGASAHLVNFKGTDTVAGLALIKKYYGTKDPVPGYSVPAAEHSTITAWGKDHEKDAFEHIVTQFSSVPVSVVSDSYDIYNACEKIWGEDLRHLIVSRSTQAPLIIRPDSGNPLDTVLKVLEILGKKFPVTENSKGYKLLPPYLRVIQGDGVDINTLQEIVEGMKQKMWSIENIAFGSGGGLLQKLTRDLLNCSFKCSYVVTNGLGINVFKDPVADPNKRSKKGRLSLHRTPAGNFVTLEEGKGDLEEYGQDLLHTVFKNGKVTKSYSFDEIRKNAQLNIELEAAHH

`CC(C)CN(C(=O)C(F)F)c1ccc(-c2ccc(C(=O)NCc3cccnc3)cn2)cc1` [Compound I-468, 6-[4-[(2,2-Difluoroacetyl)-isobutyl-amino]phenyl]-N-(3-pyridylmethyl)pyridine-3-carboxamide] was tested, and the IC50 (MV-4-11 cells; [1]) was 33.3 nM and the “NAMPT Inhibition Code” value (NAMPT) was “B (B = ≥33 to <66% inhibition)”.

For `CC(=O)N(CC1CC1)c1ccc(-c2ccc(C(=O)NCc3cccnc3F)cn2)cc1Cl` [Compound I-685, 6-[4-[Acetyl(cyclopropylmethyl)amino]-3-chloro-phenyl]-N-[(2-fluoro-3-pyridyl)methyl]pyridine-3-carboxamide], the IC50 (MV-4-11 cells; [1]) was 340 nM and the “NAMPT Inhibition Code” value (NAMPT) was “C (C = ≥66% inhibition)”.

`CC(=O)N(CCC#N)c1ccc(-c2ccc(C(=O)NCc3cccnc3)cn2)cc1` [Compound I-484, 6-[4-[acetyl(2-cyanoethyl)amino]phenyl]-N-(3-pyridylmethyl)pyridine-3-carboxamide] was tested, and the IC50 (MV-4-11 cells; [1]) was 2660 nM and the “NAMPT Inhibition Code” value (NAMPT) was “A (A = <33% inhibition)”.

For `CCC(=O)N(C)c1ccc(-c2ccc(C(=O)NCc3ccc(C)nc3)cn2)cc1C` [Compound I-450], the IC50 (MV-4-11 cells; [1]) was 7630 nM and the “NAMPT Inhibition Code” value (NAMPT) was “B (B = ≥33 to <66% inhibition)”.

For `CC(=O)N(CC(C)C)c1ccc(-c2ccc(C(=O)NCc3cccnc3C)cn2)cc1` [Compound I-467, 6-[4-[Acetyl(isobutyl)amino]phenyl]-N-[(2-methyl-3-pyridyl)methyl]pyridine-3-carboxamide], the IC50 (MV-4-11 cells; [1]) was 4340 nM and the “NAMPT Inhibition Code” value (NAMPT) was “A (A = <33% inhibition)”.

With `CC(=O)N(CC1CC(F)(F)C1)c1ccc(-c2ccc(C(=O)NCc3cccnc3)cn2)cc1` [Compound I-412, 6-[4-[acetyl-[(3,3-difluorocyclobutyl)methyl]amino]phenyl]-N-(3-pyridylmethyl)pyridine-3-carboxamide] the IC50 (MV-4-11 cells; [2]) was 82.5 nM and the “NAMPT Inhibition Code” value (NAMPT) was “B (B = ≥33 to <66% inhibition)”.

In the case of `CCC(=O)N(C)c1ccc(-c2ccc(C(=O)NCc3ccc(NCCN)nc3)cn2)cc1C` [Compound I-527, N-((6-((2-aminoethyl)amino)pyridin-3-yl)methyl)-6-(3-methyl-4-(N-methylpropionamido)phenyl)nicotinamide], the IC50 (MV-4-11 cells; [1]) is reported as 787 nM and the “NAMPT Inhibition Code” value (NAMPT) is reported as “A (A = <33% inhibition)”.

For `COC(=O)NCCN(C(C)=O)c1ccc(-c2ccc(C(=O)NCc3cccnc3)cn2)cc1` [Compound I-466, Methyl N-[2-[N-acetyl-4-[5-(3-pyridylmethylcarbamoyl)-2-pyridyl]anilino]ethyl]carbamate], the IC50 (MV-4-11 cells; [1]) was 871 nM and the “NAMPT Inhibition Code” value (NAMPT) was “A (A = <33% inhibition)”.

`CCOC(=O)N(C)c1ccc(-c2ccc(C(=O)NCc3cccnc3)cn2)cc1` [Compound I-389, ethyl N-methyl-N-[4-[5-(3-pyridylmethylcarbamoyl)-2-pyridyl]phenyl]carbamate] was tested, and the IC50 (MV-4-11 cells; [2]) was 3170 nM and the “NAMPT Inhibition Code” value (NAMPT) was “A (A = <33% inhibition)”.

In the case of `CC(=O)N(C)c1ccc(-c2ccc(C(=O)NCc3cccnc3C)cn2)cc1C(F)(F)F` [Compound I-455, 6-[4-[acetyl(methyl)amino]-3-(trifluoromethyl)phenyl]-N-[(2-methyl-3-pyridyl)methyl]pyridine-3-carboxamide], the IC50 (MV-4-11 cells; [1]) is reported as 3470 nM and the “NAMPT Inhibition Code” value (NAMPT) is reported as “A (A = <33% inhibition)”.

With `CC(=O)N(CCNC(=O)OC(C)(C)C)c1ccc(-c2ccc(C(=O)NCc3cccnc3)cn2)cc1` [Compound I-448, tert-butyl N-[2-[N-acetyl-4-[5-(3-pyridylmethylcarbamoyl)-2-pyridyl]anilino]ethyl]carbamate] the IC50 (MV-4-11 cells; [2]) was 691 nM and the “NAMPT Inhibition Code” value (NAMPT) was “A (A = <33% inhibition)”.

With `CCC(=O)N(C)c1ccc(-c2ccc(C(=O)NCc3cccnc3C(F)(F)F)cn2)cc1C` [Compound I-511, 6-[3-Methyl-4-[methyl(propanoyl)amino]phenyl]-N-[[2-(trifluoromethyl)-3-pyridyl]methyl]pyridine-3-carboxamide] the IC50 (MV-4-11 cells; [1]) was 7070 nM and the “NAMPT Inhibition Code” value (NAMPT) was “A (A = <33% inhibition)”.

For `CCC(=O)N(C)c1ccc(-c2ccc(C(=O)NCc3ccc(C)nc3C)cc2)cc1Cl` [Compound I-481, 4-[3-chloro-4-[methyl(propanoyl)amino]phenyl]-N-[(2,6-dimethyl-3-pyridyl)methyl]benzamide], the IC50 (MV-4-11 cells; [1]) was 104 nM and the “NAMPT Inhibition Code” value (NAMPT) was “A (A = <33% inhibition)”.

`CC(=O)N(c1ccc(-c2ccc(C(=O)NCc3cccnc3C)cn2)cc1C)C(C)C` [Compound I-512, 6-[4-[Acetyl(isopropyl)amino]-3-methyl-phenyl]-N-[(2-methyl-3-pyridyl)methyl]pyridine-3-carboxamide] was tested, and the IC50 (MV-4-11 cells; [1]) was 4380 nM and the “NAMPT Inhibition Code” value (NAMPT) was “A (A = <33% inhibition)”.

In the case of `CCC(=O)N(C)c1ccc(-c2ccc(C(=O)NCc3cccnc3C)cc2)cc1Cl` [Compound I-460, 4-[3-chloro-4-[methyl(propanoyl)amino]phenyl]-N-[(2-methyl-3-pyridyl)methyl]benzamide], the IC50 (MV-4-11 cells; [1]) is reported as over 694 nM and the “NAMPT Inhibition Code” value (NAMPT) is reported as “A (A = <33% inhibition)”.

With `CCC(=O)N(C)c1ccc(-c2ccc(C(=O)NCc3ccc(F)nc3)cn2)cc1` [Compound I-393, N-[(6-fluoro-3-pyridyl)methyl]-6-[4-[methyl(propanoyl)amino]phenyl]pyridine-3-carboxamide] the IC50 (MV-4-11 cells; [2]) was over 30000 nM and the “NAMPT Inhibition Code” value (NAMPT) was “A (A = <33% inhibition)”.

With `CC(=O)N(CC1CC1)c1ccc(-c2ccc(C(=O)NCc3ccc(N)nc3)cn2)cc1Cl` [Compound I-677, 6-[4-[Acetyl(cyclopropylmethyl)amino]-3-chloro-phenyl]-N-[(6-amino-3-pyridyl)methyl]pyridine-3-carboxamide] the IC50 (MV-4-11 cells; [1]) was 2.91 nM and the “NAMPT Inhibition Code” value (NAMPT) was “C (C = ≥66% inhibition)”.

`Cc1cc(-c2ccc(C(=O)NCc3cccnc3C)cn2)ccc1N(C)C(=O)CC#N` [Compound I-492, 6-[4-[(2-cyanoacetyl)-methyl-amino]-3-methyl-phenyl]-N-[(2-methyl-3-pyridyl)methyl]pyridine-3-carboxamide] was tested, and the IC50 (MV-4-11 cells; [1]) was 6770 nM and the “NAMPT Inhibition Code” value (NAMPT) was “A (A = <33% inhibition)”.

`CC(=O)N(c1ccc(-c2ccc(C(=O)NCc3cccnc3)cc2)cc1Cl)C(C)C` [Compound I-597, 4-[4-[Acetyl(isopropyl)amino]-3-chloro-phenyl]-N-(3-pyridylmethyl)benzamide] was tested, and the IC50 (MV-4-11 cells; [1]) was 21.6 nM and the “NAMPT Inhibition Code” value (NAMPT) was “C (C = ≥66% inhibition)”.

For `CC(=O)N(CC1CC1)c1ccc(-c2ccc(C(=O)Nc3ccc4nccn4c3)cn2)cc1Cl` [Compound I-681, 6-[4-[Acetyl(cyclopropylmethyl)amino]-3-chloro-phenyl]-N-imidazo[1,2-a]pyridin-6-yl-pyridine-3-carboxamide], the IC50 (MV-4-11 cells; [1]) was 1.31 nM and the “NAMPT Inhibition Code” value (NAMPT) was “C (C = ≥66% inhibition)”.

In the case of `CCOC(=O)NCCC(=O)N(C)c1ccc(-c2ccc(C(=O)NCc3cccnc3C)cn2)cc1C` [Compound I-491, Ethyl N-[3-[N,2-dimethyl-4-[5-[(2-methyl-3-pyridyl)methylcarbamoyl]-2-pyridyl]anilino]-3-oxo-propyl]carbamate], the IC50 (MV-4-11 cells; [1]) is reported as 1830 nM and the “NAMPT Inhibition Code” value (NAMPT) is reported as “A (A = <33% inhibition)”.

With `CC(=O)N(CC1CC(F)(F)C1)c1ccc(-c2ccc(C(=O)NCc3cccnc3C)cn2)cc1C` [Compound I-485, 6-[4-[Acetyl-[(3,3-difluorocyclobutyl)methyl]amino]-3-methyl-phenyl]-N-[(2-methyl-3-pyridyl)methyl]pyridine-3-carboxamide] the IC50 (MV-4-11 cells; [1]) was 1340 nM and the “NAMPT Inhibition Code” value (NAMPT) was “A (A = <33% inhibition)”.

`CCC(=O)N(C)c1ccc(-c2ccc(C(=O)Nc3cccnc3)cn2)cc1` [Compound I-353, 6-[4-[methyl(propanoyl)amino]phenyl]-N-(3-pyridyl)pyridine-3-carboxamide] was tested, and the IC50 (MV-4-11 cells; [2]) was 941 nM and the “NAMPT Inhibition Code” value (NAMPT) was “C (C = ≥66% inhibition)”.

With `CC(=O)N(CC(F)F)c1ccc(-c2ccc(C(=O)NCc3cccnc3)cn2)cc1` [Compound I-631, 6-[4-[Acetyl(2,2-difluoroethyl)amino]phenyl]-N-(3-pyridylmethyl)pyridine-3-carboxamide] the IC50 (MV-4-11 cells; [1]) was 1580 nM and the “NAMPT Inhibition Code” value (NAMPT) was “B (B = ≥33 to <66% inhibition)”.

`CC(=O)N(c1ccc(-c2ccc(C(=O)NCc3cccnc3)cn2)cc1C)C(C)C` [Compound I-495, 6-[4-[Acetyl(isopropyl)amino]-3-methyl-phenyl]-N-(3-pyridylmethyl)pyridine-3-carboxamide] was tested, and the IC50 (MV-4-11 cells; [1]) was 10.7 nM and the “NAMPT Inhibition Code” value (NAMPT) was “C (C = ≥66% inhibition)”.

In the case of `CCC(=O)N(C)c1ccc(-c2ccc(C(=O)NCc3ccc(F)nc3C)cn2)cc1` [Compound I-390, N-[(6-fluoro-2-methyl-3-pyridyl)methyl]-6-[4-[methyl(propanoyl)amino]phenyl]pyridine-3-carboxamide], the IC50 (MV-4-11 cells; [2]) is reported as 4260 nM and the “NAMPT Inhibition Code” value (NAMPT) is reported as “A (A = <33% inhibition)”.

With `CCC(=O)N(C)c1ccc(-c2ccc(C(=O)NCc3cccnc3Cl)cn2)cc1` [Compound I-395, N-[(2-chloro-3-pyridyl)methyl]-6-[4-[methyl(propanoyl)amino]phenyl]pyridine-3-carboxamide] the IC50 (MV-4-11 cells; [2]) was 6110 nM and the “NAMPT Inhibition Code” value (NAMPT) was “A (A = <33% inhibition)”.

With `CC(=O)N(CC1CC1)c1ccc(-c2ccc(C(=O)NCc3cccnc3)cn2)cc1Cl` [Compound I-602, 6-[4-[Acetyl(cyclopropylmethyl)amino]-3-chloro-phenyl]-N-(3-pyridylmethyl)pyridine-3-carboxamide] the IC50 (MV-4-11 cells; [1]) was 5.56 nM and the “NAMPT Inhibition Code” value (NAMPT) was “C (C = ≥66% inhibition)”.

For `CC(=O)N(CC(C)C)c1ccc(-c2ccc(C(=O)NCc3cccnc3)cc2)cc1` [Compound I-402, 4-[4-[acetyl(isobutyl)amino]phenyl]-N-(3-pyridylmethyl)benzamide], the IC50 (MV-4-11 cells; [2]) was 58.7 nM and the “NAMPT Inhibition Code” value (NAMPT) was “C (C = ≥66% inhibition)”.

With `CCC(=O)N(C)c1ccc(-c2ccc(C(=O)NCc3ccc(Cl)nc3)cn2)cc1` [Compound I-396, N-[(6-chloro-3-pyridyl)methyl]-6-[4-[methyl(propanoyl)amino]phenyl]pyridine-3-carboxamide] the IC50 (MV-4-11 cells; [2]) was 6560 nM and the “NAMPT Inhibition Code” value (NAMPT) was “C (C = ≥66% inhibition)”.
